According to ChEMBL document CHEMBL4715697, “Synthesis and biological activity of benzamide DNA minor groove binders” (2016):

Key:
Type in all cases: functional
[1] = tested on: HCC 2998; assay: Growth inhibition of human HCC 2998 cells assessed as cell growth at 0.01 uM incubated for 48 hrs by sulforhodamine B assay relative to control; details: read-out: Activity
[2] = tested on: HCT-15; assay: Growth inhibition of human HCT-15 cells assessed as cell growth at 0.01 uM incubated for 48 hrs by sulforhodamine B assay relative to control; details: read-out: Activity
[3] = tested on: HT-29; assay: Growth inhibition of human HT-29 cells assessed as cell growth at 100 uM incubated for 48 hrs by sulforhodamine B assay relative to control; details: read-out: Activity
[4] = tested on: BT-549; assay: Growth inhibition of human BT-549 cells assessed as cell growth at 1 uM incubated for 48 hrs by sulforhodamine B assay relative to control; details: read-out: Activity
[5] = tested on: SF-539; assay: Growth inhibition of human SF-539 cells assessed as cell growth at 0.1 uM incubated for 48 hrs by sulforhodamine B assay relative to control; details: read-out: Activity
[6] = tested on: NCI/ADR-RES; assay: Growth inhibition of human NCI/ADR-RES cells assessed as cell growth at 0.01 uM incubated for 48 hrs by sulforhodamine B assay relative to control; details: read-out: Activity
[7] = tested on: SW-620; assay: Growth inhibition of human SW-620 cells assessed as cell growth at 100 uM incubated for 48 hrs by sulforhodamine B assay relative to control; details: read-out: Activity
[8] = tested on: CAKI-1; assay: Growth inhibition of human CAKI-1 cells assessed as cell growth at 100 uM incubated for 48 hrs by sulforhodamine B assay relative to control; details: read-out: Activity
[9] = tested on: MDA-MB-435; assay: Growth inhibition of human MDA-MB-435 cells incubated for 48 hrs by sulforhodamine B assay
[10] = tested on: NCI/ADR-RES; assay: Growth inhibition of human NCI/ADR-RES cells assessed as cell growth at 100 uM incubated for 48 hrs by sulforhodamine B assay relative to control; details: read-out: Activity
[11] = tested on: UACC-62; assay: Growth inhibition of human UACC-62 cells incubated for 48 hrs by sulforhodamine B assay
[12] = tested on: NCI-H460; assay: Growth inhibition of human NCI-H460 cells assessed as cell growth at 1 uM incubated for 48 hrs by sulforhodamine B assay relative to control; details: read-out: Activity
[13] = tested on: RPMI-8226; assay: Growth inhibition of human RPMI-8226 cells assessed as cell growth at 100 uM incubated for 48 hrs by sulforhodamine B assay relative to control; details: read-out: Activity
[14] = tested on: LOX IMVI; assay: Growth inhibition of human LOX IMVI cells assessed as cell growth at 1 uM incubated for 48 hrs by sulforhodamine B assay relative to control; details: read-out: Activity
[15] = tested on: UO-31; assay: Growth inhibition of human UO-31 cells assessed as cell growth at 100 uM incubated for 48 hrs by sulforhodamine B assay relative to control; details: read-out: Activity
[16] = tested on: ACHN; assay: Growth inhibition of human ACHN cells incubated for 48 hrs by sulforhodamine B assay
[17] = tested on: HOP-62; assay: Growth inhibition of human HOP-62 cells incubated for 48 hrs by sulforhodamine B assay
[18] = tested on: A549; assay: Growth inhibition of human A549/ATCC cells assessed as cell growth at 0.01 uM incubated for 48 hrs by sulforhodamine B assay relative to control; details: read-out: Activity
[19] = tested on: SF-539; assay: Growth inhibition of human SF-539 cells assessed as cell growth at 0.01 uM incubated for 48 hrs by sulforhodamine B assay relative to control; details: read-out: Activity
[20] = tested on: 786-0; assay: Growth inhibition of human 786-0 cells assessed as cell growth at 0.1 uM incubated for 48 hrs by sulforhodamine B assay relative to control; details: read-out: Activity
[21] = tested on: SNB-75; assay: Growth inhibition of human SNB-75 cells assessed as cell growth at 100 uM incubated for 48 hrs by sulforhodamine B assay relative to control; details: read-out: Activity
[22] = tested on: OVCAR-5; assay: Growth inhibition of human OVCAR-5 cells assessed as cell growth at 0.01 uM incubated for 48 hrs by sulforhodamine B assay relative to control; details: read-out: Activity
[23] = tested on: SK-OV-3; assay: Growth inhibition of human SK-OV-3 cells incubated for 48 hrs by sulforhodamine B assay
[24] = tested on: SN12C; assay: Growth inhibition of human SN12C cells assessed as cell growth at 0.1 uM incubated for 48 hrs by sulforhodamine B assay relative to control; details: read-out: Activity
[25] = tested on: HCT-116; assay: Growth inhibition of human HCT-116 cells assessed as cell growth at 1 uM incubated for 48 hrs by sulforhodamine B assay relative to control; details: read-out: Activity
[26] = tested on: NCI-H23; assay: Growth inhibition of human NCI-H23 cells assessed as cell growth at 0.1 uM incubated for 48 hrs by sulforhodamine B assay relative to control; details: read-out: Activity
[27] = tested on: OVCAR-5; assay: Growth inhibition of human OVCAR-5 cells incubated for 48 hrs by sulforhodamine B assay
[28] = tested on: SN12C; assay: Growth inhibition of human SN12C cells assessed as cell growth at 1 uM incubated for 48 hrs by sulforhodamine B assay relative to control; details: read-out: Activity
[29] = tested on: SF-268; assay: Growth inhibition of human SF-268 cells assessed as cell growth at 100 uM incubated for 48 hrs by sulforhodamine B assay relative to control; details: read-out: Activity
[30] = tested on: A549; assay: Growth inhibition of human A549/ATCC cells incubated for 48 hrs by sulforhodamine B assay
[31] = tested on: NCI-H23; assay: Growth inhibition of human NCI-H23 cells assessed as cell growth at 100 uM incubated for 48 hrs by sulforhodamine B assay relative to control; details: read-out: Activity
[32] = tested on: SK-MEL-28; assay: Growth inhibition of human SK-MEL-28 cells assessed as cell growth at 0.01 uM incubated for 48 hrs by sulforhodamine B assay relative to control; details: read-out: Activity
[33] = tested on: SK-MEL-28; assay: Growth inhibition of human SK-MEL-28 cells incubated for 48 hrs by sulforhodamine B assay
[34] = tested on: A498; assay: Growth inhibition of human A498 cells assessed as cell growth at 0.1 uM incubated for 48 hrs by sulforhodamine B assay relative to control; details: read-out: Activity
[35] = read-out: LC50 (the source's name)
[36] = read-out: pLC50 (the source's name) (converted)

SMILES: CC(=O)Nc1cc(CCl)cc(NC(=O)c2ccc(C(=O)Nc3cccc(NC(=O)CCCN(C)C)c3)cc2)c1
- growth at 0.01 µM [1]: 102%
- growth at 0.01 µM [2]: 94%
- growth at 100 µM [3]: 51%
- growth at 1 µM [4]: 108%
- growth at 0.1 µM [5]: 103%
- growth at 0.01 µM [6]: 105%
- growth at 100 µM [7]: 92%
- growth at 100 µM [8]: 100%
- GI50 ([9]; read-out: GI50): > 100 µM
- LC50 (50% lethal concentration) ([9]; read-out: LC50): > 100 µM
- TGI ([9]; read-out: TGI): > 100 µM
- GI50 ([9]; read-out: pGI50 (converted)): > 100 µM
- LC50 (50% lethal concentration) ([9]; read-out: pLC50 (converted)): > 100 µM
- TGI ([9]; read-out: pTGI): > 100 µM
- growth at 100 µM [10]: 85%
- GI50 ([11]; read-out: GI50): > 100 µM
- CC50 [11, 35]: > 100 µM
- TGI ([11]; read-out: TGI): > 100 µM
- GI50 ([11]; read-out: pGI50 (converted)): > 100 µM
- CC50 [11, 36]: > 100 µM
- TGI ([11]; read-out: pTGI): > 100 µM
- growth at 1 µM [12]: 109%
- growth at 100 µM [13]: 107%
- growth at 1 µM [14]: 86%
- growth at 100 µM [15]: 113%
- GI50 ([16]; read-out: GI50): > 100 µM
- CC50 [16, 35]: > 100 µM
- TGI ([16]; read-out: TGI): > 100 µM
- GI50 ([16]; read-out: pGI50 (converted)): > 100 µM
- CC50 [16, 36]: > 100 µM
- TGI ([16]; read-out: pTGI): > 100 µM
- GI50 ([17]; read-out: GI50): > 100 µM
- CC50 [17, 35]: > 100 µM
- TGI ([17]; read-out: TGI): > 100 µM
- GI50 ([17]; read-out: pGI50 (converted)): > 100 µM
- CC50 [17, 36]: > 100 µM
- TGI ([17]; read-out: pTGI): > 100 µM
- growth at 0.01 µM [18]: 104%
- growth at 0.01 µM [19]: 98%
- growth at 0.1 µM [20]: 104%
- growth at 100 µM [21]: 97%
- growth at 0.01 µM [22]: 92%
- GI50 ([23]; read-out: GI50): > 100 µM
- LC50 (concentration killing 50% of cells) ([23]; read-out: LC50): > 100 µM
- TGI ([23]; read-out: TGI): > 100 µM
- GI50 ([23]; read-out: pGI50 (converted)): > 100 µM
- LC50 (concentration killing 50% of cells) ([23]; read-out: pLC50 (converted)): > 100 µM
- TGI ([23]; read-out: pTGI): > 100 µM
- growth at 0.1 µM [24]: 104%
- growth at 1 µM [25]: 107%
- growth at 0.1 µM [26]: 98%
- GI50 ([27]; read-out: GI50): > 100 µM
- LC50 ([27]; read-out: LC50): > 100 µM
- TGI ([27]; read-out: TGI): > 100 µM
- GI50 ([27]; read-out: pGI50 (converted)): > 100 µM
- LC50 ([27]; read-out: pLC50 (converted)): > 100 µM
- TGI ([27]; read-out: pTGI): > 100 µM
- growth at 1 µM [28]: 105%
- growth at 100 µM [29]: 88%
- GI50 ([30]; read-out: GI50): > 100 µM
- CC50 [30, 35]: > 100 µM
- TGI ([30]; read-out: TGI): > 100 µM
- GI50 ([30]; read-out: pGI50 (converted)): > 100 µM
- CC50 [30, 36]: > 100 µM
- TGI ([30]; read-out: pTGI): > 100 µM
- growth at 100 µM [31]: 79%
- growth at 0.01 µM [32]: 98%
- GI50 ([33]; read-out: GI50): > 100 µM
- LC50 (50% lethal concentration) ([33]; read-out: LC50): > 100 µM
- TGI ([33]; read-out: TGI): > 100 µM
- GI50 ([33]; read-out: pGI50 (converted)): > 100 µM
- LC50 (50% lethal concentration) ([33]; read-out: pLC50 (converted)): > 100 µM
- TGI ([33]; read-out: pTGI): > 100 µM
- growth at 0.1 µM [34]: 73%
